Structures are written as SMILES.

A short description of data set [1]: Dissociation constant was determined. It counts as physicochemical.
Data set [2] is filed under the species Mus musculus. The experiment in a line: Mean survival time at a dose of 25 ug/mL in mouse fibroblasts and Maloney sarcoma transplanted 3T3 fibroblasts by using Rane assay; Nontoxic. The format is functional, organism-based.
The test system of data set [3] is Plasmodium berghei. The experiment in a line: Mean survival time in blood schizonticidal screen against Plasmodium berghei at 640 mg/kg by Rane assay; Non-toxic. It counts as functional, organism-based. The arrangement: dose 640 mg/kg.

For orientation: pKa means the pH at which an ionisable group is half protonated. In turn, `Cc1c([N+](=O)[O-])c(C)n(C)c1C(=O)O` came in with a pKa in data set [1] of 5.5. Take `Cc1c(NC=O)c(C)n(C)c1C(=O)Nc1c(C)c(C(=O)NCCC(=N)N)n(C)c1C`: the Mean survival time result in data set [2] and in data set [3] was “Non-toxic” throughout. Take `Cc1c(NC=O)c(C)n(C)c1C(=O)NCCC(=N)N`: the Mean survival time entry in data set [2] and in data set [3] was “Non-toxic” in each case.
